Key:
[1] = tested on: mouse ovarian tumor M5076; test: Tumor weight of solid tumor of mouse ovarian tumor in BDF1 mice; assay type: in vivo; conditions: for Tumor weight (day 1 = 100): Table 9, cisplatin 5 mg/Kg, hEGF, [Leu^21 ]-hEGF or hEGF-II 100 μg/Kg subcutaneous, average ± standard error
Method: BDF1 male mice were employed. The feeding conditions were the same as in Experimental Example 1.
Mouse ovarian tumor M5076 was transplanted subcutaneously at the axialla of mouse in 1-2×10^6 cells per mouse. 12 days after transplantation, the size of tumor was measured according to the same method as in Experimental Example 1 (Colon 26) and the tumor weight was calculated.
The grouping operation on initiation of Experiments was conducted in the same manner as in Experimental Example 1. The compounds were administered in the same manner as in Experimental Example 9.
The experiment was carried out in the samme manner as in Experimental Examples 1, 7 and as in Experimental Example 17 for others.

[2] = tested on: Colon adenocarcinoma 38 (mouse colon adenocarcinoma); test: Tumor weight of transplanted Colon adenocarcinoma 38 in C57BL/6 mice; assay type: in vivo; conditions: for antitumor effect of (a) + (b) (quantity not headed; method of Experimental Example 4): Table 21; for tumor growth inhibiting effect, same experiment as Experimental Example 19: used in place of 5-FU in combination with FGF
Method: Colon adenocarcinoma 38 (mouse colon adenocarcinoma) was minced into pieces and about 0.1 to 0.2 ml thereof was transplanted subcutaneously on the right side of mouse abdomen by a cell transplanting needle (trocker). Eleven days after transplantation, the size of tumor, namely longer diameter (a mm) and shorter diameter (b mm) of tumor were measured and the tumor weight was calculated according to the formula shown below [Instruction 14 (NCI) 1980].
Tumor weight (mg)=ab^2 /2
In the Table, days indicate the experimental days with the day of compound administration being as the day 1, and the tumor weight immediately before administration of compound of day 1 is made 100. The respective values show the average value ± standard error of case numbers of 10 to 20, in the Table, the marks of (*), * and *** indicate the statistical significance difference of the combined administration group relative to the 5-FU single administration group (the definition of P is as defined above).

[3] = (a) Adriamycin, Mixed injection
[4] = (a) Adriamycin, Separate injection
[5] = (a) Cisplatin, Separate injection
[6] = (a) Tegafur, Separate injection
[7] = Table 15, day 4 after compound administration, hTGFβ and hEGF 100 μg/Kg with each compound having antitumor action
[8] = Table 12, day 4 after compound administration, weight before administration = 100, Tegafur 400, 5-FU 150, Mitomycin-C 5, Cisplatin 5 mg/Kg, hIGF-II 50 μg/Kg subcutaneous, average ± standard error of 8-10 mice
[9] = Table 13, same method as Experimental Example 20 (day 4), Tegafur 400, Mitomycin-C 5, Adriamycin 10, Cisplatin 5 mg/Kg, Insulin 50 m μg/Kg subcutaneous
[10] = Table 14, hTGFα 100 μg/10 ml/Kg with 5-FU, Tegafur, Mitomycin-C, Adriamycin or Cisplatin, as described for Table 12

Compound | antitumor effect of (a) + (b) (quantity not headed; method of Experimental Example 4) [2, 3] | antitumor effect of (a) + (b) (quantity not headed; method of Experimental Example 4) [2, 4] | antitumor effect of (a) + (b) (quantity not headed; method of Experimental Example 4) ([2]; (a) Cisplatin, Mixed injection) | antitumor effect of (a) + (b) (quantity not headed; method of Experimental Example 4) [2, 5] | antitumor effect of (a) + (b) (quantity not headed; method of Experimental Example 4) ([2]; (a) Tegafur, Mixed injection) | antitumor effect of (a) + (b) (quantity not headed; method of Experimental Example 4) [2, 6] | Tumor weight ratio(%) [2, 7] [%] | tumor growth inhibiting effect, same experiment as Experimental Example 19 [2] | Tumor weight ratio(%) [2, 8] [%] | Tumor weight ratio(%) [2, 9] [%] | Tumor weight ratio(%) [2, 10] [%] | other results
[Leu^21 ]-hEGF: derivative of hEGF with the 21st methionine from the N-terminal substituted with leucine (NSDSECPLSHDGYCLHDGVCLYIEALDKYACNCVVGYIGERCQYRDLKWWELR; not fully specified; Epidermal growth factor; UniProt P01133 971-1023, looked up, variant M21L) | 99.6 | 97.8 | 90.4 | 100.1 | 48.1 | 50.3 | – | – | – | – | – | antitumor effect potentiation, same experiment as Experimental Example 17 ([1]; used together with mytomycin C in place of cisplatin): the same results; tumor cell growth inhibition, same experiment as Experimental Example 4 ([2]; used in place of hEGF in combination with 5-FU): the same results; tumor cell growth inhibition, same experiment as Experimental Example 14 ([2]; used in place of hEGF in combination with Tegafur): the same results; antitumor action potentiating effect, same experiment as Experimental Example 9 ([2]; used in place of hEGF in combination with cisplatin): the same results; tumor cell growth inhibiting effect, same experiment as Experimental Example 15 ([2]; used in place of hEGF in combination with cyclophosphamide): the same results
Insulin | 110.2 | 121.1 | 105.6 | 110.3 | 58.9 | 48.1 | – | – | – | – | – | –
O=P1(N(CCCl)CCCl)NCCCO1 (stereo not shown) [Cyclophosphamide, cyclophosphamide] | – | – | – | – | – | – | 90.6 ± 7.6 | the same results | – | – | – | Tumor weight (day 1 = 100) ([2]; Table 7, day 2, cyclophosphamide 200 mg/Kg, hEGF 100 μg/Kg subcutaneous on day 1 and day 3, average ± standard error of 8 mice): 145.2 ± 18.2; Tumor weight (day 1 = 100) ([2]; Table 7, day 3, cyclophosphamide 200 mg/Kg, hEGF 100 μg/Kg subcutaneous on day 1 and day 3, average ± standard error of 8 mice): 147.6 ± 13.7; Tumor weight (day 1 = 100) ([2]; Table 7, day 4, cyclophosphamide 200 mg/Kg, hEGF 100 μg/Kg subcutaneous on day 1 and day 3, average ± standard error of 8 mice): 102.4 ± 8.6; Tumor weight (day 1 = 100) ([2]; Table 7, day 5, cyclophosphamide 200 mg/Kg, hEGF 100 μg/Kg subcutaneous on day 1 and day 3, average ± standard error of 8 mice): 92.2 ± 5.1; Tumor weight (day 1 = 100) ([2]; Table 7, day 6, cyclophosphamide 200 mg/Kg, hEGF 100 μg/Kg subcutaneous on day 1 and day 3, average ± standard error of 8 mice): 108.5 ± 19.6; Tumor weight (day 1 = 100) ([2]; Table 7, day 7, cyclophosphamide 200 mg/Kg, hEGF 100 μg/Kg subcutaneous on day 1 and day 3, average ± standard error of 8 mice): 110.9 ± 21.3
CO[C@@]12[C@H](COC(N)=O)C3=C(C(=O)C(C)=C(N)C3=O)N1C[C@@H]1N[C@@H]12 [MMC, mitomycin C] | – | – | – | – | – | – | 101.1 ± 8.3 | the same results | 95.8 ± 5.5 | 95.8 ± 5.5 | 95.8 ± 5.5 | Tumor weight (day 1 = 100) ([2]; Table 8, day 2, MMC 5 mg/Kg, hEGF, hEGF-II or [Leu^21 ]-hEGF 100 μg/Kg subcutaneous on day 1 and day 5, average ± standard error of 6 mice): 130.8 ± 8.5; Tumor weight (day 1 = 100) ([2]; Table 8, day 3, MMC 5 mg/Kg, hEGF, hEGF-II or [Leu^21 ]-hEGF 100 μg/Kg subcutaneous on day 1 and day 5, average ± standard error of 6 mice): 106.1 ± 9.4; Tumor weight (day 1 = 100) ([2]; Table 8, day 4, MMC 5 mg/Kg, hEGF, hEGF-II or [Leu^21 ]-hEGF 100 μg/Kg subcutaneous on day 1 and day 5, average ± standard error of 6 mice): 95.8 ± 5.5; Tumor weight (day 1 = 100) ([2]; Table 8, day 5, MMC 5 mg/Kg, hEGF, hEGF-II or [Leu^21 ]-hEGF 100 μg/Kg subcutaneous on day 1 and day 5, average ± standard error of 6 mice): 98.6 ± 3.9; Tumor weight (day 1 = 100) ([2]; Table 8, day 6, MMC 5 mg/Kg, hEGF, hEGF-II or [Leu^21 ]-hEGF 100 μg/Kg subcutaneous on day 1 and day 5, average ± standard error of 6 mice): 160.7 ± 10.9; Tumor weight (day 1 = 100) ([2]; Table 8, day 7, MMC 5 mg/Kg, hEGF, hEGF-II or [Leu^21 ]-hEGF 100 μg/Kg subcutaneous on day 1 and day 5, average ± standard error of 6 mice): 150.8 ± 15.9; Tumor weight (day 1 = 100) ([2]; Table 8, day 8, MMC 5 mg/Kg, hEGF, hEGF-II or [Leu^21 ]-hEGF 100 μg/Kg subcutaneous on day 1 and day 5, average ± standard error of 6 mice): 263.6 ± 30.8; Tumor weight (day 1 = 100) ([2]; Table 8, day 9, MMC 5 mg/Kg, hEGF, hEGF-II or [Leu^21 ]-hEGF 100 μg/Kg subcutaneous on day 1 and day 5, average ± standard error of 6 mice): 308.7 ± 54.0
TGFα: human transforming growth factor α | 98.4 | 92.6 | 80.4 | 80.1 | 34.3 | 40.6 | – | – | – | – | – | –
N.N.[Cl][Pt][Cl] [Cisplatin, cisplatin] | – | – | – | – | – | – | 139.8 ± 9.9 | the same results | 145.6 ± 9.1 | 145.6 ± 9.1 | 145.6 ± 9.1 | Tumor weight (day 1 = 100) ([1]; day 2): 126.4 ± 9.0; Tumor weight (day 1 = 100) ([1]; day 3): 125.49 ± 8.3; Tumor weight (day 1 = 100) ([1]; day 4): 136.9 ± 5.2; Tumor weight (day 1 = 100) ([1]; day 5): 143.6 ± 14.5; Tumor weight (day 1 = 100) ([1]; day 6): 192.0 ± 20.6
O=c1[nH]c(=O)n(C2CCCO2)cc1F (stereo not shown) [Tegafur, 1-(2-tetrahydrofuryl)-5-fluorouracil] | – | – | – | – | – | – | 118.0 ± 9.8 | – | 95.2 ± 15.4 | 95.2 ± 15.4 | 95.2 ± 15.4 | Tumor weight (day 1 = 100) ([2]; Table 6, day 2, Tegafur 400 mg/Kg, hEGF 100 μg/Kg subcutaneous on day 1 and day 4, average ± standard error of 7 mice): 89.0 ± 10.5; Tumor weight (day 1 = 100) ([2]; Table 6, day 3, Tegafur 400 mg/Kg, hEGF 100 μg/Kg subcutaneous on day 1 and day 4, average ± standard error of 7 mice): 102.1 ± 13.5; Tumor weight (day 1 = 100) ([2]; Table 6, day 4, Tegafur 400 mg/Kg, hEGF 100 μg/Kg subcutaneous on day 1 and day 4, average ± standard error of 7 mice): 105.5 ± 18.4; Tumor weight (day 1 = 100) ([2]; Table 6, day 5, Tegafur 400 mg/Kg, hEGF 100 μg/Kg subcutaneous on day 1 and day 4, average ± standard error of 7 mice): 104.2 ± 22.6; Tumor weight (day 1 = 100) ([2]; Table 6, day 6, Tegafur 400 mg/Kg, hEGF 100 μg/Kg subcutaneous on day 1 and day 4, average ± standard error of 7 mice): 94.5 ± 16.9; Tumor weight (day 1 = 100) ([2]; Table 6, day 7, Tegafur 400 mg/Kg, hEGF 100 μg/Kg subcutaneous on day 1 and day 4, average ± standard error of 7 mice): 131.4 ± 23.3; Tumor weight (day 1 = 100) ([2]; Table 6, day 8, Tegafur 400 mg/Kg, hEGF 100 μg/Kg subcutaneous on day 1 and day 4, average ± standard error of 7 mice): 143.7 ± 20.6; Tumor weight ratio(%) ([2]; Table 16, day 4 after administration, Tegafur in place of 5-FU, FGF as in Experimental Example 19): 103.1 ± 13.1%; Tumor weight ratio(%) ([2]; Table 17, day 4 after compound administration, Tegafur 400 mg/Kg, hEGF, hEGF-II, [Leu^21 ]-hEGF each 100 μg/Kg, RA 30 mg/Kg subcutaneous): 90.6 ± 11.5%
